Experiments:
[1] = classification of the substance (M+/M−); cited from earlier work
liver = details: classification of the substance (Cr+/Cr−); cited from earlier work
rodent = details: classification of the substance (C+/C−); cited from earlier work
[2] = test system: mRNA expressed from the genes (A) to (D) in rat liver; assay: Behavior of genes (mRNA expression level, oligo-DNA microarray) in rat liver after 28-day oral administration; format: in vivo; details: mRNA vs vehicle control group
Method in brief: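 Rat liver RNA after 28 days of daily gavage dosing (male F344, 5 weeks old, four per group). A change reaching 1.5-fold, or 1/1.5, against solvent control scores as significant; opposite direction versus another carcinogen scores as not significant.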

[3] = gene group (A), Unigene No. Rn.167075
[4] = gene group (C), Unigene No. Rn.120914

SMILES: CC/C(=C(/CC)c1ccc(O)cc1)c1ccc(O)cc1 [TS068, Diethylstilbestrol]
- Mutagenicity by Ames test [1]: M−
- Liver carcinogenicity (liver): Cr−
- Carcinogenicity (rodent): C+
- Behavior of gene caused by administration of chemical substance, Gene No. 4846 ([2]; gene group (A), Unigene No. Rn.144554): +
- Behavior of gene caused by administration of chemical substance, Gene No. 2026 [2, 3]: −
- Behavior of gene caused by administration of chemical substance, Gene No. 4218 [2, 3]: +
- Behavior of gene caused by administration of chemical substance, Gene No. 6182 ([2]; gene group (A), Unigene No. Rn.5834): +
- Behavior of gene caused by administration of chemical substance, Gene No. 5600 ([2]; gene group (A), Unigene No. Rn.9836): +
- Behavior of gene caused by administration of chemical substance, Gene No. 1494 ([2]; gene group (B), Unigene No. Rn.1430): −
- Behavior of gene caused by administration of chemical substance, Gene No. 2045 ([2]; gene group (B), Unigene No. Rn.19329): −
- Behavior of gene caused by administration of chemical substance, Gene No. 2203 ([2]; gene group (B), Unigene No. Rn.21240): −
- Behavior of gene caused by administration of chemical substance, Gene No. 533 ([2]; gene group (C), Unigene No. Rn.106184): +
- Behavior of gene caused by administration of chemical substance, Gene No. 725 ([2]; gene group (C), Unigene No. Rn.108075): +
- Behavior of gene caused by administration of chemical substance, Gene No. 1163 ([2]; gene group (C), Unigene No. Rn.11766): +
- Behavior of gene caused by administration of chemical substance, Gene No. 4973 ([2]; gene group (C), Unigene No. Rn.118529): +
- Behavior of gene caused by administration of chemical substance, Gene No. 4095 ([2]; gene group (C), Unigene No. Rn.119024): +
- Behavior of gene caused by administration of chemical substance, Gene No. 1334 [2, 4]: +
- Behavior of gene caused by administration of chemical substance, Gene No. 6620 [2, 4]: +
- Behavior of gene caused by administration of chemical substance, Gene No. 6303 ([2]; gene group (C), Unigene No. Rn.123063): +
- Behavior of gene caused by administration of chemical substance, Gene No. 5878 ([2]; gene group (C), Unigene No. Rn.143213): +
- Behavior of gene caused by administration of chemical substance, Gene No. 1131 ([2]; gene group (C), Unigene No. Rn.144946): +
- Behavior of gene caused by administration of chemical substance, Gene No. 1562 ([2]; gene group (C), Unigene No. Rn.14744): +
- Behavior of gene caused by administration of chemical substance, Gene No. 1741 ([2]; gene group (C), Unigene No. Rn.1647): +
- Behavior of gene caused by administration of chemical substance, Gene No. 893 ([2]; gene group (C), Unigene No. Rn.164817): +
- Behavior of gene caused by administration of chemical substance, Gene No. 6026 ([2]; gene group (C), Unigene No. Rn.167685): +
- Behavior of gene caused by administration of chemical substance, Gene No. 154 ([2]; gene group (C), Unigene No. Rn.185941): +
- Behavior of gene caused by administration of chemical substance, Gene No. 1993 ([2]; gene group (C), Unigene No. Rn.18728): +
- Behavior of gene caused by administration of chemical substance, Gene No. 813 ([2]; gene group (C), Unigene No. Rn.201760): +
- Behavior of gene caused by administration of chemical substance, Gene No. 2494 ([2]; gene group (C), Unigene No. Rn.23969): +
- Behavior of gene caused by administration of chemical substance, Gene No. 2546 ([2]; gene group (C), Unigene No. Rn.24561): +
- Behavior of gene caused by administration of chemical substance, Gene No. 3776 ([2]; gene group (C), Unigene No. Rn.43232): +
- Behavior of gene caused by administration of chemical substance, Gene No. 3929 ([2]; gene group (C), Unigene No. Rn.4620): +
- Behavior of gene caused by administration of chemical substance, Gene No. 1119 ([2]; gene group (C), Unigene No. Rn.9757): +
- Behavior of gene caused by administration of chemical substance, Gene No. 6742 ([2]; gene group (C), Unigene No. Rn.9779): +
- Behavior of gene caused by administration of chemical substance, Gene No. 5634 ([2]; gene group (C), Unigene No. Rn.9862): +
- Behavior of gene caused by administration of chemical substance, Gene No. 5726 ([2]; gene group (D), Unigene No. Rn.9939): −

— patent US20110039721A1, “METHOD FOR PREDICTION ABOUT CARCINOGENICITY OF SUBSTANCE IN RODENT” (Chemicals Evaluation and Research Institute, priority 2007, published 2011)
